Earlier results as cited in patent publication US20200221707A1, “Sanitizing Compositions and Methods for Making and Using Same” (priority 2017, published 2020).

Legend:
most bacteria = settings: in <30 seconds
[1] = system: Gram-negative bacteria and fungi

| SMILES | bacteria destroyed (most bacteria) | amount active against Gram-positive bacteria (Gram-positive bacteria) | amount effective against Gram-negative bacteria and fungi [1] |
| --- | --- | --- | --- |
| CC(C)O [Isopropyl alcohol] | > 99.99% |  |  |
| [H]/N=C(\N/C(=N/[H])NCCCCCCNC(=N)NC(=N)Nc1ccc(Cl)cc1)Nc1ccc(Cl)cc1 [Chlorhexidine] |  | at least 1 ppm | 10-80 ppm |
